This is an account of results in article PMC7281206, “Cysteine Cathepsins Inhibition Affects Their Expression and Human Renal Cancer Cell Phenotype” (Cancers, 2020).

*: point of attachment. CH2F = FC*

The test system of data set [1] is E-cadherin in 769-P cells. Description: E-cadherin protein expression (western blot), 769-P. The data set is classed as cell-based, human. The procedure:
These properties could be the result of the modulation of the effectors controlling EMT, as previously shown in other tumor models. To test this hypothesis, the cells were treated with the inhibitors for 24, 48, and 72 h by changing the media every day, and they were tested for E-cadherin and SNAIL1 expression (Figure 6; detail information of western blots can be seen in Supplementary Figure S7).  Figure 6 Effects of the peptides on E-cadherin and SNAIL1 protein expression: (a,b) protein expression of E-cadherin and SNAIL1 in 769-P and (c,d) A498 cells after 24, 48, and 72 h of treatment with the peptides. Data are represented as mean ± SD of at least three replicates. Significance was calculated through one-way ANOVA, followed by Dunnet’s test. Cells were seeded in RPMI containing 10% FBS and cultured for 24 h. Next, 30 µM of inhibitors were added to the culture medium and incubated for 24, 48, and 72 h. Control cells were treated with 0.01% DMSO. At all time points the samples were lysed in 50 mM Tri-HCl (pH 8.0), 100 mM NaCl, 0.5% NP-40, 1% Triton X-100, 1× protease inhibitor cocktail (ThermoFisher, Waltham, MA, USA). The 50 µg of protein lysates were separated by electrophoresis on a 12% SDS-PAGE gel and transferred to the PFDF membranes. The expression of cysteine Cts, LAMP-1, E-cadherin, and SNAIL1 were identified by a reaction with specific primary antibodies (CtsB-Ab190077, Abcam, UK; CtsL-Ab95154, Abcam, UK; CtsW Ab191083; LAMP-1- Ab24170, Abcam, UK; SNAIL1 Ab216347, Abcam, UK and e-cadherin-612131, BD Sciences Franklin Lakes, NJ, USA) which were resuspended in 5% non-fat milk in PBST (all Cts 1:3000, LAMP-1, SNAIL1 and E-cadherin 1:1000) and incubated O/N. The next day, the membranes were washed three times with PBST and incubated for 1 h with secondary antibodies (P-GAR Iss (Goat pAb to rabbit IgG (HRP), Abcam, UK or Rabbit Ab to mouse, Abcam, UK; both 1:5000) in 5% non-fat milk in PBST. After an additional wash (three times with PBS), reactive bands were detected by chemiluminescence (Bio-Rad, Irvine, CA, USA). As a loading control, the membranes were incubated with a polyclonal anti-tubulin antibody (1:5000; Ab52866, Abcam, UK) identically.

Another data set is described as follows: Dispersibility in water. It counts as physicochemical.
In data set [2] the test system is 769-P cells (endolysosomal compartment). Description: LysoTracker red fluorescence, 769-P. The data set is classed as cell-based, human. Conditions: 20 μM; 48 h; 75 nM LysoTracker red, 1 h, Ex/Em 570/600. How it is done:
First, 1.5 × 10^4 769-P or A498 cells were seeded in 96-well plates in full medium. The day after the cells were treated with the peptides for 3 consecutive days to establish 24, 48, and 72 h groups of treatment. LysoTracker Red fluorescence intensity was measured via microplate reader following the protocols described in [75] and applying Ex/Em = 570/600. The cells were incubated with 75 nM of LysoTracker red for 1 h. […]
Figure S6. The effect of the peptide inhibitors on human 769‐P and A498 renal cancer cell on
lysosomes integrity. (a) 769‐P and (b) A498 cells were treated with increasing doses of Ac‐PLVE‐FMK
(red bars) and Ac‐VLPE‐FMK (blue bars) (2.5–250 μM). NR uptake was measured after 24, 48, and 72
h via MTT assay. (c) LysoTracker red evaluation in 769‐P and (d) A498 cells after 24, 48, and 72 h with
the inhibitors (20 μM). Data represent the mean (± S.D.) of at least three independent experiments,
each performed in triplicate. […]

For the substance Ac-VLPE-CH2F [Ac-VLPE-FMK], the results for the E-cadherin protein expression entry in data set [1] (72 h) and in data set [1] (first 48 h) were “further increased in 769P cells” and “increased the protein expression of E-cadherin in the first 48 h in both the cell lines”, respectively. Further, the Dispersibility in water entry in “Dispersibility in water” is reported as “easily dispersed in water”. In addition, the LysoTracker red fluorescence entry in data set [2] was “slightly increasing”.

On to Ac-PLVE-CH2F [Ac-PLVE-FMK], for which the E-cadherin protein expression entry in data set [1] (72 h) is reported as “further increased in 769P cells”; in data set [1] (first 48 h), “increased the protein expression of E-cadherin in the first 48 h in both the cell lines”. Also, in the data set “Dispersibility in water”, the Dispersibility in water entry is “easily dispersed in water”. For the same substance, the LysoTracker red fluorescence entry in data set [2] is on record as “slightly increasing”.
